Reference: ChEMBL document CHEMBL5370541, “Targeting VPS34 in autophagy: An update on pharmacological small-molecule compounds” (Eur J Med Chem, 2023)

Assays:
[1] = target: T1, Phosphatidylinositol 3-kinase catalytic subunit type 3 (Homo sapiens, UniProt Q8NEB9); assay: Inhibition of VPS34 (unknown origin) by ADP hunter plus assay
[2] = tested on: MCF7; assay: Inhibition of starvation-induced autophagy in human MCF7 cells expressing eGFP-tagged LC3; type: functional, cell-based
[3] = target: T1, Phosphatidylinositol 3-kinase catalytic subunit type 3; assay: Binding affinity to VPS34 (unknown origin) assessed as dissociation constant by KINOMEscan analysis
[4] = tested on: MCF7; assay: Inhibition of rapamycin-induced autophagy in human MCF7 cells expressing eGFP-tagged LC3; type: functional, cell-based

T1 sequence (Q8NEB9 whole entry): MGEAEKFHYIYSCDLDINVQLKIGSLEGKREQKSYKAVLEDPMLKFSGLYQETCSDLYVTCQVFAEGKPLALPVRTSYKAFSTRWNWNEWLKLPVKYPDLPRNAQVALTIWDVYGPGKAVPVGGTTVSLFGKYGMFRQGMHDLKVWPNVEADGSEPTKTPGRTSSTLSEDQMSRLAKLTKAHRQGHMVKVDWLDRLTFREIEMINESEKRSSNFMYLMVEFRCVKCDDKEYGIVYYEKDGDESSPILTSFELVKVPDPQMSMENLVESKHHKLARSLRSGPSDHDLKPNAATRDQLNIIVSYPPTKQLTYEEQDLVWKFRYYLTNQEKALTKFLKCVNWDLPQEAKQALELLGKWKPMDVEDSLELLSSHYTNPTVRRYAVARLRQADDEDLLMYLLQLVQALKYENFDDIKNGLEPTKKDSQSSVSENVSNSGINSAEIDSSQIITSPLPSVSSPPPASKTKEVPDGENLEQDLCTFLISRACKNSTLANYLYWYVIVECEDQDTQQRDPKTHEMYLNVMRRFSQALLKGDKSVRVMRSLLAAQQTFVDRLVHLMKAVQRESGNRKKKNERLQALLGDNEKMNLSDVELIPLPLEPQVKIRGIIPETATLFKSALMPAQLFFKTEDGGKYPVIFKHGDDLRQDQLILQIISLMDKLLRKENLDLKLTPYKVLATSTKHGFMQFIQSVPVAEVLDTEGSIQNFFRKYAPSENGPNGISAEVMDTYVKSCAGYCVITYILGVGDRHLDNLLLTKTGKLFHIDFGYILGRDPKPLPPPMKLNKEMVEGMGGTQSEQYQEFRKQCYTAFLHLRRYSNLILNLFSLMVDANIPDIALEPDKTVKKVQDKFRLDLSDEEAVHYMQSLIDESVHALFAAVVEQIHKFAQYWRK

Row | Structure (SMILES) | IC50 [1] | IC50 [2] | also measured
1 | COc1ccc2nccc([C@@H](O)[C@@H]3C[C@@H]4CCN3c3c4[nH]c4nc(Cl)ccc34)c2c1 | – | 8.12 µM | –
2 | C[C@@H]1COCCN1c1cc(N2CCCC[C@@H]2C(F)(F)F)[nH]c(=O)c1 | – | – | Kd [3]: 1 nM
3 | COc1ccc2nccc([C@@H](O)[C@@H]3C[C@@H]4CCN3c3c4[nH]c4nc(C)c(Br)cc34)c2c1 | – | 0.04 µM | IC50 [4]: 8 nM
4 | COc1ccc2nccc([C@@H](O)[C@@H]3C[C@@H]4CCN3c3c4[nH]c4nc(C(F)(F)F)ccc34)c2c1 | – | 5.82 µM | –

Continued, in another order:

Row | IC50 [1] | Structure (SMILES) | IC50 [2] | also measured
5 | 151 nM | O=C1Nc2ccc(-c3cccnc3)cc2C1=Cc1cc(Br)c(O)c(Br)c1 | – | –
6 | 9.12 nM | O=c1cc(N2CCOCC2)nc2n(Cc3cccc(Cl)c3Cl)c(C3CC3)nn12 | – | –
7 | 1510 nM | O=S(=O)(c1ccc(-c2ccnc3[nH]ccc23)cc1)C1CCCC1 | – | –
